This note sets out measurements from patent US20110059962A1, “TRANSCRIPTION FACTOR MODULATING COMPOUNDS AND METHODS OF USE THEREOF” (priority 2009, published 2011).

The target in one test is LcrF (VirF) (Yersinia pestis, UniProt P28808). Nature of the test: biochemical. The test is classed as binding, Y. pseudotuberculosis.
For another test, the target named is T1, ExsA (Pseudomonas aeruginosa, UniProt P26993).
T1 construct: made in house
T1 sequence (P26993 1-278): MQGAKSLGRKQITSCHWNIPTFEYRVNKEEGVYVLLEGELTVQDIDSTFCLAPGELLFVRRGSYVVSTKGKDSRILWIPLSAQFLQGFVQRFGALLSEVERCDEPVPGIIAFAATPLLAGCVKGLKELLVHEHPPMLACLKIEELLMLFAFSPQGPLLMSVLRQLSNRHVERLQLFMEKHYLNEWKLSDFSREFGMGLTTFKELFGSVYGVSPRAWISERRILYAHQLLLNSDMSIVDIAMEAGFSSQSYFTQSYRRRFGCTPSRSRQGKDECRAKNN
Nature of the test: Inhibition of ExsA-DNA binding, cell-free chemiluminescence assay. On the set-up: species or system P. aeruginosa.

Another test has as its target T2, SoxS (Escherichia coli, UniProt P0A9E2).
T2 construct: made in house; host or cells: E. coli
T2 sequence (P0A9E2 1-107): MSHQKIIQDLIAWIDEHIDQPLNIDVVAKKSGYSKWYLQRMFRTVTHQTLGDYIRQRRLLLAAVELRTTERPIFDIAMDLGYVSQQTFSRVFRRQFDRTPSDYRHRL
Put plainly: Inhibition of SoxS-DNA binding, cell-free chemiluminescence assay. Details: species or system E. coli.

For test [1], the system named is Y. pseudotuberculosis cytotoxicity toward J774 cells. Put plainly: microbe, parasite or virus in culture. The following applies: Yersinia pseudotuberculosis, J774, read-out: % Cytotoxicity.
The test system of test [2] is P. aeruginosa cytotoxicity toward J774 cells. Nature of the test: Inhibition of P. aeruginosa cytotoxicity toward J774 macrophage-like cells, whole cell LDH release assay (CytoTox 96). Particulars: Pseudomonas aeruginosa, J774, read-out: % Cytotoxicity. On the set-up: dose or concentration left out as unconfirmed.
A further test deals with T3, SlyA (Salmonella typhimurium, UniProt P40676).
T3 construct: made in house; host or cells: E. coli
T3 sequence (P40676 1-144): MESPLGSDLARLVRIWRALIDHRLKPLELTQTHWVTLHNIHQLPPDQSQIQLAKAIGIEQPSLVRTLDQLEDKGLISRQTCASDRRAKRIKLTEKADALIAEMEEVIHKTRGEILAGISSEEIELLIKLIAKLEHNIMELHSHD
Put plainly: Inhibition of SlyA-DNA binding, cell-free chemiluminescence assay (specificity). On the set-up: species or system S. typhimurium enterica serovar Typhimurium.

The test system of test [3] is pET-15b supercoiled plasmid DNA. Put plainly: Assay to detect direct DNA binding (UV fluorescence and agarose gel migration of plasmid DNA). The following applies: 100 μg/mL; 100 ng pET-15b plasmid, 30 minutes at room temperature.

A value given as a limit tells only on which side of the number the result lay.

Chain of LcrF (VirF) (P28808 whole entry, looked up): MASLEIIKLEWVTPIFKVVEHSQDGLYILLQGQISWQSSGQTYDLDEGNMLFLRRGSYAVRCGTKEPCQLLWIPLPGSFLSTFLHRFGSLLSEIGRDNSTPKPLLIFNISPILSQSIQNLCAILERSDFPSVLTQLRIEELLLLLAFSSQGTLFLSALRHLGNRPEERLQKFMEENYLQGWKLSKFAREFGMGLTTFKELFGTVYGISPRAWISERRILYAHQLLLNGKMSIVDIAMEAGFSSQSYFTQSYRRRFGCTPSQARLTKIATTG

For `CSc1ccc(/C=C/C(=O)Nc2ccc(-c3nc4ccc([N+](=O)[O-])cc4n3O)cc2)cc1` [C], the figures for the IC50 against LcrF (VirF), on ExsA and on SoxS were 10 to 25 µM, 10 to 25 µM and 25 to 50 µM, respectively. The activity at 50 µg/mL in test [1] fell in the range of 75 to 99%. The activity in test [2] lay in the range of 75 to 99%.
In the case of `CSc1ccc(/C=C/C(=O)Nc2ccc(-c3nc4ccc(C#N)cc4n3O)cc2)cc1` [Compound D, (E)-N-[4-(6-Cyano-1-hydroxy-1H-benzoimidazol-2-yl)-phenyl]-3-(4-methylsulfanyl-phenyl)-acrylamide], the figures for the IC50 on LcrF (VirF), on ExsA and at SoxS were 25 to 50 µM, less than 10 µM and 10 to 25 µM, respectively. In addition, the activity at 50 µg/mL in test [1] fell in the range of 75 to 99%. For the same compound, the activity in test [2] fell in the range of 75 to 99%.
For `CSc1ccc(/C=C/C(=O)Nc2ccc(-c3nc4ccc(C#N)cc4n3O)cc2)cn1` [Compound H, (E)-N-[4-(6-Cyano-1-hydroxy-1H-benzoimidazol-2-yl)-phenyl]-3-(6-methylsulfanyl-pyridin-3-yl)-acrylamide], the values for the concentration for half-maximal inhibition (IC50) against LcrF (VirF), at ExsA and on SoxS were 25 to 50 µM, less than 10 µM and greater than 50 µM, respectively. For the same compound, in test [1], the activity at 50 µg/mL was less than 75%. Further, the activity in test [2] is less than 75%.
For the compound `CC(=O)c1ccc(/C=C/C(=O)Nc2ccc(-c3nc4c(CC(=O)O)cc([N+](=O)[O-])cc4n3O)cc2)cc1` [Compound J, (2-{4-[(E)-3-(4-Acetyl-phenyl)-acryloylamino]-phenyl}-1-hydroxy-6-nitro-1H-benzoimidazol-4-yl)-acetic acid], the IC50 – broadly, the concentration at which inhibition is half-maximal – against LcrF (VirF) was less than 10 µM; at ExsA, less than 10 µM; on SoxS, less than 10 µM; at SlyA it was 25 to 50 µM. In addition, the activity at 50 µg/mL in test [1] was less than 75%. Moreover, the activity in test [2] was less than 75%.
As for `N#Cc1ccc2nc(-c3ccc(NC(=O)c4ccc(-n5cccn5)nc4)cc3)n(O)c2c1` [Compound M, N-[4-(6-Cyano-1-hydroxy-1H-benzoimidazol-2-yl)-phenyl]-6-pyrazol-1-yl-nicotinamide], the IC50 on LcrF (VirF) and at SoxS was greater than 50 µM each time. Besides, in test [1], the activity at 50 µg/mL was less than 75%. The activity in test [2] lay in the range of 75 to 99%.
On to `N#Cc1ccc2nc(-c3ccc(NC(=O)c4ccc(N5CCOCC5)nc4)cc3)n(O)c2c1` [Compound P, N-[4-(6-Cyano-1-hydroxy-1H-benzoimidazol-2-yl)-phenyl]-6-morpholin-4-yl-nicotinamide], for which the IC50 is greater than 50 µM at LcrF (VirF), less than 10 µM on ExsA and greater than 50 µM at SoxS. In addition, the activity at 50 µg/mL in test [1] was in the range of 75 to 99%. Besides, the activity in test [2] lay within 75 to 99%.
As to `CC(=O)c1ccc(/C=C/C(=O)Nc2ccc(-c3nc4c(CC(=O)O)cc([N+](=O)[O-])cc4n3O)cc2)cn1` [Compound V, (2-{4-[(E)-3-(6-Acetyl-pyridin-3-yl)-acryloylamino]-phenyl}-1-hydroxy-6-nitro-1H-benzoimidazol-4-yl)-acetic acid], the IC50 at LcrF (VirF) was less than 10 µM; on ExsA, less than 10 µM; on SlyA it was 25 to 50 µM. Besides, in test [1], the activity at 50 µg/mL was less than 75%. Further, the activity in test [2] is less than 75%.
Consider `CSc1ccc(/C=C/C(=O)Nc2ccc(-c3nc4ccc([N+](=O)[O-])cc4n3O)cc2)cn1` [G], for which the IC50 against LcrF (VirF) was 10 to 25 µM; on ExsA it was less than 10 µM; on SoxS, greater than 50 µM. The activity at 50 µg/mL in test [1] is less than 75%. In addition, the activity in test [2] was less than 75%.
For the compound `CCOc1ccc(-c2nc3ccc(-c4nc5ccc(N6CCN(C)CC6)cc5[nH]4)cc3[nH]2)cc1` [Hoechst 33342], the “fluorescence under UV light and DNA migration on agarose gel” value in test [3] is “bright fluorescence under UV light and a faint smear on the gel”.
